Source: patent US4766148A, “Biphenylylpropionic acid derivative and pharmaceutical composition containing the same” (priority 1983, dated 1988)
Where two headings read alike, the source gives them in different places.

Assays:
[1] = tested on: gastric ulcer; experiment: Gastric ulceration (gastric irritation test); type: in vivo, Wistar male rats; conditions: for UD50 (50% ulcerative dose): rat, in vivo, po; for UD50, gastric ulcer: Table 3, Wistar male rats, orally, six hours after administration, Litchfield-Wilcoxon
Procedure: (§1) Five Wistar male rats weighing about 150 g. were used as one group. The rats were fasted for 24 hours before the test.
(§2) Six hours after orally administration of the compounds to be tested, there was observed an existence of gastric ulcer by the method of Okabe et al (Ohyoyakuri, 16, 241 to 247 (1978)). The UD50 values were calculated from the ulcer incidence of gastric ulcer by the method of Litchfield-Wilcoxon.

[2] = tested on: mice; experiment: Acute toxicity; conditions: 20160 min; for LD50: Table 5, male SLC-ddY mice, orally, 2 weeks observation, Litchfield Wilcoxon
Procedure: (§3) Eight male SLC-ddY mice 5 week old weighing 25 to 30 g. were used as one group. The compound to be tested was orally administered using a stomach tube. The animals were kept under observation for 2 weeks. The numbers of dead animals were counted and the LD50 values were calculated by the method of Litchfield Wilcoxon.

[3] = Gastric ulceration (gastric irritation test); type: in vivo, Wistar male rats; conditions: rat, in vivo, po
Procedure: as §1, §2

[4] = tested on: carrageenan-induced edema; experiment: Inhibitory effect on carrageenan-induced edema; type: in vivo, Wistar male rats; conditions: Rattus norvegicus
Procedure: Five Wistar male rats weighing about 150 g. were used as one group. A 1% dispersion of carrageenan was injected intracutaneously into the foot pad of the right hind foot in a dose of 0.1 ml./rat. The compounds to be tested were orally administered to the rats fasted for 15 hours one hour before the carrageenan injection, or intravenously administered 2 hours […] the carrageenan injection. The volume of the foot subjected to the injection was measured by a mercury plethysmography 3 hours after the carrageenan injection on the test by oral route or 2 hours after the carrageenan injection on the test by intravenous route, and the carrageenan-induced edema was estimated from the obtained measurments.

[5] = in vivo; conditions: mouse, po
Procedure: as §3

[6] = in vitro; conditions: human, plasma
Procedure: Each reaction mixture was incubated at 37° C. for one hour
The free FP formed by esterase in the plasma was extracted with benzene. After treating the extract with N,O-bis(trimethylsilylacetamide) for trimethylsilylation, the obtained material was determined by gas-liquid chromatography.

[7] = Hydrolysis of FP derivatives in rat plasma; type: in vitro ADME; conditions: Table 4; rat plasma (Compound No. 10), 37° C., one hour, amount corresponding to 50 μg. of FP per 1 ml.; read-out: Hydrolyzing rate
[8] = Table 3, Wistar male rats, orally, six hours after administration, Litchfield-Wilcoxon, read-out: UD50, gastric ulcer
[9] = iv, 2 h, read-out: ED50, carrageenan-induced edema
[10] = iv, read-out: ED50 (50% effective dose), carrageenan-induced edema inhibition
[11] = po, read-out: ED50 (50% effective dose), carrageenan-induced edema inhibition
[12] = po, read-out: ED50, carrageenan-induced edema
[13] = iv, Table 1, rats, i.v., read-out: ED50 (50% effective dose), carrageenan-induced edema inhibition
[14] = iv, Table 2, Wistar male rats, i.v. 2 hours after carrageenan, read-out: ED50, carrageenan-induced edema
[15] = po, Table 1, rats, p.o., read-out: ED50 (50% effective dose), carrageenan-induced edema inhibition
[16] = po, Table 2, Wistar male rats, p.o. one hour before carrageenan, measured 3 hours after carrageenan, read-out: ED50, carrageenan-induced edema

For `COc1ccc2c(c1)c(CC(=O)OCC(=O)O)c(C)n2C(=O)c1ccc(Cl)cc1` [acemethacin], the “UD50 (50% ulcerative dose)” value ([1]; 360 min) was 17.5 mg/kg, the “LD50 (50% lethal dose)” value ([2]; Table 1, mice, p.o.) was 18.0 mg/kg and the LD50 [2] was 18.0 mg/kg.

Compound `CCC(OC(C)=O)OC(=O)C(C)c1ccc(-c2ccccc2)c(F)c1` (centres unmarked) [Compound 6, 1-(Acetoxy)propyl 2-(2-fluoro-4-biphenylyl)propionate] has a TD50 at 6 h [3, 8] of 5 mg/kg, an ED50 [4, 9] of 0.1 mg/kg and an ED50 [4, 10] of 0.1 mg/kg. It also gave an ED50 [4, 11] of 1.5 mg/kg, an ED50 [4, 12] of 1.5 mg/kg and an LD50 at 336 h [5] of 900 mg/kg.

Compound `CC=CC=CC(=O)OC(C)OC(=O)C(C)c1ccc(-c2ccccc2)c(F)c1` (centres unmarked) [Compound 9, [1-(2,4-Hexadienoyloxy)ethyl]2-(2-fluoro-4-biphenylyl) propionate] has a TD50 at 6 h [3] of 7 mg/kg, an ED50 [4, 13] of 0.3 mg/kg and an ED50 [4, 14] of 0.3 mg/kg. For the same compound, the ED50 [4, 15] was 2 mg/kg, the ED50 [4, 16] was 2 mg/kg and the metabolised at 1 h [6] was 20.4%. For the same compound, the LD50 at 336 h [5] was 1000 mg/kg.

Compound `CC(OC(=O)C(C)C)OC(=O)C(C)c1ccc(-c2ccccc2)c(F)c1` (centres unmarked) [Compound 3, 1-(isobutyryloxy)ethyl 2-(2-fluoro-4-biphenylyl)propionate] has a TD50 at 6 h [3, 8] of 5 mg/kg, an ED50 [4, 9] of 0.1 mg/kg and an ED50 [4, 10] of 0.1 mg/kg. For the same compound, the ED50 [4, 11] was 1.5 mg/kg, the ED50 [4, 12] was 1.5 mg/kg and the LD50 at 336 h [5] was 880 mg/kg.

In the case of `CCC(=O)OC(C)OC(=O)C(C)c1ccc(-c2ccccc2)c(F)c1` (centres unmarked) [Compound 2, 1-(Propionyloxy)ethyl 2-(2-fluoro-4-biphenylyl)propionate], the TD50 at 6 h [3, 8] is reported as 3 mg/kg, the ED50 [4, 9] is reported as 0.06 mg/kg and the ED50 [4, 10] is reported as 0.06 mg/kg. The ED50 [4, 11] was 0.7 mg/kg, the ED50 [4, 12] was 0.7 mg/kg and the LD50 at 336 h [5] was 800 mg/kg.

In the case of `CCCCCCCCCCCCCCCC(=O)OC(C)OC(=O)C(C)c1ccc(-c2ccccc2)c(F)c1` (centres unmarked) [Compound 5, 1-(palmitoyloxy)ethyl 2-(2-fluoro-4-biphenylyl)propionate], the “UD50 (50% ulcerative dose)” value ([1]; 6 h) is reported as greater than 10.0 mg/kg, the TD50 at 6 h [3] is reported as greater than 10 mg/kg and the ED50 [4, 13] is reported as greater than 5 mg/kg. For the same compound, the ED50 [4, 14] was greater than 5 mg/kg, the ED50 [4, 15] was greater than 5 mg/kg and the ED50 [4, 16] was greater than 5 mg/kg. The “LD50 (50% lethal dose)” value ([2]; mouse, in vivo, po) was greater than 1000 mg/kg and the LD50 at 336 h [5] was greater than 1000 mg/kg.

For `COc1ccc2c(c1)c(CC(=O)O)c(C)n2C(=O)c1ccc(Cl)cc1` [indomethacin], the “UD50, gastric ulcer” value ([1]; 360 min) was 5.0 mg/kg, the “LD50 (50% lethal dose)” value ([2]; Table 1, mice, p.o.) was 14.0 mg/kg and the LD50 [2] was 14.0 mg/kg.

With `CC(C(=O)O)c1ccc(-c2ccccc2)c(F)c1` (centres unmarked) [FP, 2-(2-fluoro-4-biphenylyl)-propionic acid] the “UD50, gastric ulcer” value ([1]; 360 min) was 1.0 mg/kg, the “LD50 (50% lethal dose)” value ([2]; Table 1, mice, p.o.) was 440 mg/kg and the LD50 [2] was 440 mg/kg.

Compound `CC(OC(=O)C(C)c1ccc(-c2ccccc2)c(F)c1)OC(=O)C(C)(C)C` (centres unmarked) [Compound 4, 1-(pivaloyloxy)ethyl 2-(2-fluoro-4-biphenylyl)propionate] has a TD50 at 6 h [3] of 10 mg/kg, an ED50 [4, 13] of 0.6 mg/kg and an ED50 [4, 14] of 0.6 mg/kg. For the same compound, the ED50 [4, 15] was 2.5 mg/kg, the ED50 [4, 16] was 2.5 mg/kg and the “LD50 (50% lethal dose)” value ([2]; mouse, in vivo, po) was greater than 1000 mg/kg. It also gave an LD50 at 336 h [5] greater than 1000 mg/kg.

`C/C=C/C(=O)OC(C)OC(=O)C(C)c1ccc(-c2ccccc2)c(F)c1` (centres unmarked) [Compound 7, 1-(crotonoyloxy)ethyl 2-(2-fluoro-4-biphenylyl)propionate] gave a TD50 at 6 h [3, 8] of 4 mg/kg, an ED50 [4, 9] of 0.08 mg/kg and an ED50 [4, 10] of 0.08 mg/kg. It also gave an ED50 [4, 11] of 0.9 mg/kg, an ED50 [4, 12] of 0.9 mg/kg and an LD50 at 336 h [5] of 800 mg/kg.

Work on `CC(C(=O)OC1C(=O)OCC1(C)C)c1ccc(-c2ccccc2)c(F)c1` (centres unmarked) [Compound 10, 3,3-Dimethyl-2-[2-(2-fluoro-4-biphenylyl)propionyloxy]-γ-butyrolactone] yielded a TD50 at 6 h [3, 8] of 2.5 mg/kg, an ED50 [4, 9] of 0.05 mg/kg and an ED50 [4, 10] of 0.05 mg/kg. The ED50 [4, 11] was 0.5 mg/kg, the ED50 [4, 12] was 0.5 mg/kg and the metabolised at 1 h [7] was 72.3%. For the same compound, the LD50 at 336 h [5] was 670 mg/kg.

In the case of `CC(=O)OC(C)OC(=O)C(C)c1ccc(-c2ccccc2)c(F)c1` (centres unmarked) [Compound 1, 1-(Acetoxy)ethyl 2-(2-fluoro-4-biphenylyl)propionate], the TD50 at 6 h [3, 8] is reported as 2.5 mg/kg, the ED50 [4, 9] is reported as 0.05 mg/kg and the ED50 [4, 10] is reported as 0.05 mg/kg. For the same compound, the ED50 [4, 11] was 0.5 mg/kg, the ED50 [4, 12] was 0.5 mg/kg and the LD50 at 336 h [5] was 650 mg/kg.

`CC(C)=CC(=O)OC(C)OC(=O)C(C)c1ccc(-c2ccccc2)c(F)c1` (centres unmarked) [Compound 8, [1-(3,3-dimethylacryloyloxy)ethyl]2-(2-fluoro-4-biphenylyl)propionate] gave a TD50 at 6 h [3] of 7 mg/kg, an ED50 [4, 13] of 0.3 mg/kg and an ED50 [4, 14] of 0.3 mg/kg. For the same compound, the ED50 [4, 15] was 2.5 mg/kg, the ED50 [4, 16] was 2.5 mg/kg and the LD50 at 336 h [5] was 1000 mg/kg.
